One assay relates to APESV. The assay can be described thus: greenhouse pre-emergence herbicidal test. Type of assay: in vivo, Apera spica-venti. The following applies: pre-emergence method, scale from 0 to 100. An excerpt: (§1) The seeds of the test plants were sown separately for each species. For the pre-emergence treatment, the active ingredients, which had been suspended or emulsified in water, were applied directly after sowing by means of finely distributing nozzles. The containers were irrigated gently to promote germination and growth and subsequently covered with transparent plastic hoods until the plants had rooted. This cover caused uniform germination of the test plants, unless this had been impaired by the active ingredients. Depending on the species, the plants were kept at 10-25° C. or 20-35° C., respectively. The test period extended over 2 to 4 weeks. During this time, the plants were tended, and their response to the individual treatments was evaluated. Evaluation was carried out using a scale from 0 to 100. 100 means no emergence of the plants, or complete destruction of at least the aerial moieties, and 0 means no damage, or normal course of growth. […] The plants used in the greenhouse experiments were of the following species: [table]

In a further assay the test system is ALOMY. The experiment in a line: greenhouse post-emergence herbicidal test. Type of assay: in vivo, Alopercurus myosuroides. Particulars: post-emergence method, scale from 0 to 100. The text has this: (§2) The seeds of the test plants were sown separately for each species. For the post-emergence treatment, the test plants were first grown to a height of 3 to 15 cm, depending on the plant habit, and only then treated with the active ingredients which had been suspended or emulsified in water. For this purpose, the test plants were either sown directly and grown in the same containers, or they were first grown separately as seedlings and transplanted into the test containers a few days prior to treatment. Depending on the species, the plants were kept at 10-25° C. or 20-35° C., respectively. The test period extended over 2 to 4 weeks. During this time, the plants were tended, and their response to the individual treatments was evaluated. Evaluation was carried out using a scale from 0 to 100. 100 means no emergence of the plants, or complete destruction of at least the aerial moieties, and 0 means no damage, or normal course of growth. […] The plants used in the greenhouse experiments were of the following species: [table]

The test system of a further assay is AVEFA. The assay can be described thus: greenhouse post-emergence herbicidal test. Type of assay: in vivo, Avena fatua. Particulars: post-emergence method, scale from 0 to 100.
Source text: as §2

The subject of assay [1] is ECHCG. The experiment in a line: greenhouse pre-emergence herbicidal test. It is filed as in vivo, Echinocloa crus-galli. The following applies: pre-emergence method, scale from 0 to 100.
Source text: as §1

For assay [2], the system named is ECHCG. The assay can be described thus: greenhouse post-emergence herbicidal test. Type of assay: in vivo, Echinocloa crus-galli. Particulars: post-emergence method, scale from 0 to 100.
Source text: as §2

As to `O=C(O)c1nc(C2CC2)ncc1-c1c(Cl)cc(Cl)cc1Cl` [example 149], the “herbicidal activity against APESV” value with APESV (application rate 1000 g/ha) was “very good (a very good herbicidal activity is given at values of at least 85)”. For the same compound, the “herbicidal activity against ALOMY” value with ALOMY (application rate 1000 g/ha) is given as “very good (a very good herbicidal activity is given at values of at least 85)”. Further, the “herbicidal activity against AVEFA” value with AVEFA (application rate 1000 g/ha) is listed as “very good (a very good herbicidal activity is given at values of at least 85)”.

For the compound `N#Cc1cc(F)ccc1-c1cnc(C2CC2)nc1C(=O)O` [example 157], in the assay on APESV (application rate 1000 g/ha), the “herbicidal activity against APESV” value was “very good (a very good herbicidal activity is given at values of at least 85)”. Further, in the assay on ALOMY (application rate 1000 g/ha), the “herbicidal activity against ALOMY” value is listed as “very good (a very good herbicidal activity is given at values of at least 85)”. Also, in the assay with AVEFA (application rate 1000 g/ha), the “herbicidal activity against AVEFA” value is given as “very good (a very good herbicidal activity is given at values of at least 85)”.

In the case of `Cc1ccc(C)c(-c2cnc(C3CC3)nc2C(=O)O)c1` [example 165], the “herbicidal activity against APESV” value with APESV (application rate 500 g/ha) is “very good (a very good herbicidal activity is given at values of at least 85)”. For the same compound, the “herbicidal activity against ALOMY” value with ALOMY (application rate 500 g/ha) is “very good (a very good herbicidal activity is given at values of at least 85)”. In the assay with AVEFA (application rate 500 g/ha), the “herbicidal activity against AVEFA” value is given as “very good (a very good herbicidal activity is given at values of at least 85)”.

Take `COc1ccc(C)c(-c2cnc(C3CC3)nc2C(=O)O)c1` [example 166]: in the assay on APESV (application rate 500 g/ha), the “herbicidal activity against APESV” value is reported as “very good (a very good herbicidal activity is given at values of at least 85)”. The “herbicidal activity against ECHCG” value was “very good (a very good herbicidal activity is given at values of at least 85)” with ECHCG [1] (application rate 500 g/ha) and “good (A good herbicidal activity is given at values of at least 70)” in the assay with ECHCG [2] (application rate 500 g/ha). Moreover, the “herbicidal activity against ALOMY” value in the assay on ALOMY (application rate 500 g/ha) is on record as “good (A good herbicidal activity is given at values of at least 70)”.

With `Cc1c(F)cccc1-c1cnc(C2CC2)nc1C(=O)O` [example 170], the “herbicidal activity against APESV” value with APESV (application rate 1000 g/ha) is recorded as “very good (a very good herbicidal activity is given at values of at least 85)”. Besides, the results for the “herbicidal activity against ECHCG” value in the assay with ECHCG [1] (application rate 1000 g/ha) and in the assay with ECHCG [2] (application rate 1000 g/ha) were “very good (a very good herbicidal activity is given at values of at least 85)” and “good (A good herbicidal activity is given at values of at least 70)”, respectively. For the same compound, in the assay with ALOMY (application rate 1000 g/ha), the “herbicidal activity against ALOMY” value is on record as “very good (a very good herbicidal activity is given at values of at least 85)”.

As for `COC(=O)c1nc(C2CC2)ncc1-c1c(F)cc(Cl)cc1Cl` [example 194], the “herbicidal activity against APESV” value in the assay on APESV (application rate 500 g/ha) is reported as “good (A good herbicidal activity is given at values of at least 70)”. In the assay with ALOMY (application rate 500 g/ha), the “herbicidal activity against ALOMY” value is recorded as “good (A good herbicidal activity is given at values of at least 70)”. Also, in the assay with AVEFA (application rate 500 g/ha), the “herbicidal activity against AVEFA” value is reported as “very good (a very good herbicidal activity is given at values of at least 85)”.

As to `COC(=O)c1nc(C2CC2)ncc1-c1c(Cl)cccc1OC` [example 202], in the assay with APESV (application rate 1000 g/ha), the “herbicidal activity against APESV” value is listed as “good (A good herbicidal activity is given at values of at least 70)”. The “herbicidal activity against ECHCG” value with ECHCG [1] (application rate 1000 g/ha) was “very good (a very good herbicidal activity is given at values of at least 85)”; with ECHCG [2] (application rate 1000 g/ha) it was “good (A good herbicidal activity is given at values of at least 70)”. Besides, in the assay on ALOMY (application rate 1000 g/ha), the “herbicidal activity against ALOMY” value was “very good (a very good herbicidal activity is given at values of at least 85)”.

For `COC(=O)c1nc(C2CC2)ncc1-c1ccccc1C#N` [example 217], the “herbicidal activity against APESV” value with APESV (application rate 500 g/ha) was “very good (a very good herbicidal activity is given at values of at least 85)”. Moreover, the “herbicidal activity against ECHCG” value with ECHCG [1] (application rate 500 g/ha) and with ECHCG [2] (application rate 500 g/ha) was “very good (a very good herbicidal activity is given at values of at least 85)” in each case. Also, the “herbicidal activity against ALOMY” value in the assay with ALOMY (application rate 500 g/ha) is listed as “good (A good herbicidal activity is given at values of at least 70)”.

Turning to `COC(=O)c1nc(C2CC2)ncc1-c1cc(F)ccc1C#N` [example 218], the “herbicidal activity against APESV” value in the assay with APESV (application rate 500 g/ha) is “very good (a very good herbicidal activity is given at values of at least 85)”. In addition, the “herbicidal activity against ECHCG” value in the assay on ECHCG [1] (application rate 500 g/ha) and with ECHCG [2] (application rate 500 g/ha) was “very good (a very good herbicidal activity is given at values of at least 85)” in each case. For the same compound, the “herbicidal activity against AVEFA” value with AVEFA (application rate 500 g/ha) is “very good (a very good herbicidal activity is given at values of at least 85)”.

For `COC(=O)c1nc(C2CC2)ncc1-c1cc(OC)ccc1C` [example 229], the “herbicidal activity against APESV” value in the assay with APESV (application rate 500 g/ha) is reported as “very good (a very good herbicidal activity is given at values of at least 85)”. The “herbicidal activity against ECHCG” value in the assay with ECHCG [1] (application rate 500 g/ha) and in the assay on ECHCG [2] (application rate 500 g/ha) was “very good (a very good herbicidal activity is given at values of at least 85)” throughout. Besides, the “herbicidal activity against ALOMY” value with ALOMY (application rate 500 g/ha) was “good (A good herbicidal activity is given at values of at least 70)”.

In the case of `COC(=O)c1nc(C2CC2)ncc1-c1ccc(C)cc1C` [example 231], the “herbicidal activity against APESV” value in the assay with APESV (application rate 1000 g/ha) was “very good (a very good herbicidal activity is given at values of at least 85)”. The “herbicidal activity against ECHCG” value in the assay with ECHCG [1] (application rate 1000 g/ha) was “very good (a very good herbicidal activity is given at values of at least 85)”; with ECHCG [2] (application rate 1000 g/ha), “good (A good herbicidal activity is given at values of at least 70)”. In the assay with ALOMY (application rate 1000 g/ha), the “herbicidal activity against ALOMY” value was “good (A good herbicidal activity is given at values of at least 70)”.

As for `COC(=O)c1nc(C2CC2)ncc1-c1ccccc1C(F)(F)F` [example 239], in the assay on APESV (application rate 1000 g/ha), the “herbicidal activity against APESV” value was “very good (a very good herbicidal activity is given at values of at least 85)”. Further, the “herbicidal activity against ECHCG” value with ECHCG [1] (application rate 1000 g/ha) was “very good (a very good herbicidal activity is given at values of at least 85)”. The “herbicidal activity against AVEFA” value with AVEFA (application rate 1000 g/ha) is “very good (a very good herbicidal activity is given at values of at least 85)”.

As for `COC(=O)COC(=O)c1nc(C2CC2)ncc1-c1ccccc1Cl` [example 261], in the assay on APESV (application rate 1000 g/ha), the “herbicidal activity against APESV” value is “very good (a very good herbicidal activity is given at values of at least 85)”. Further, the “herbicidal activity against ECHCG” value in the assay on ECHCG [1] (application rate 1000 g/ha) and in the assay on ECHCG [2] (application rate 1000 g/ha) was “very good (a very good herbicidal activity is given at values of at least 85)” throughout. In the assay with ALOMY (application rate 1000 g/ha), the “herbicidal activity against ALOMY” value is listed as “very good (a very good herbicidal activity is given at values of at least 85)”.

Take `O=C(OC1CC1)c1nc(C2CC2)ncc1-c1ccccc1Cl` [example 262]: the “herbicidal activity against APESV” value in the assay on APESV (application rate 500 g/ha) is given as “very good (a very good herbicidal activity is given at values of at least 85)”. The “herbicidal activity against ECHCG” value in the assay on ECHCG [1] (application rate 500 g/ha) was “very good (a very good herbicidal activity is given at values of at least 85)”. For the same compound, in the assay on AVEFA (application rate 500 g/ha), the “herbicidal activity against AVEFA” value is listed as “good (A good herbicidal activity is given at values of at least 70)”.

`CC(C)OC(=O)CSC(=O)c1nc(C2CC2)ncc1-c1ccccc1Cl` [example 279]: in the assay on APESV (application rate 500 g/ha), the “herbicidal activity against APESV” value was “very good (a very good herbicidal activity is given at values of at least 85)”. Moreover, in the assay with ECHCG [1] (application rate 500 g/ha), the “herbicidal activity against ECHCG” value is recorded as “very good (a very good herbicidal activity is given at values of at least 85)”. Also, the “herbicidal activity against AVEFA” value with AVEFA (application rate 500 g/ha) was “very good (a very good herbicidal activity is given at values of at least 85)”.

Consider `COc1ccc(CSC(=O)c2nc(C3CC3)ncc2-c2ccccc2Cl)cc1` [example 282], for which the “herbicidal activity against APESV” value with APESV (application rate 500 g/ha) was “very good (a very good herbicidal activity is given at values of at least 85)”. Moreover, in the assay with AVEFA (application rate 500 g/ha), the “herbicidal activity against AVEFA” value is recorded as “very good (a very good herbicidal activity is given at values of at least 85)”.

For the compound `CCSC(=O)c1nc(C2CC2)ncc1-c1ccccc1Cl` [example 291], the “herbicidal activity against APESV” value with APESV (application rate 500 g/ha) is listed as “very good (a very good herbicidal activity is given at values of at least 85)”. Besides, the “herbicidal activity against ECHCG” value with ECHCG [1] (application rate 500 g/ha) and in the assay on ECHCG [2] (application rate 500 g/ha) was “very good (a very good herbicidal activity is given at values of at least 85)” in each case. In the assay with AVEFA (application rate 500 g/ha), the “herbicidal activity against AVEFA” value is on record as “very good (a very good herbicidal activity is given at values of at least 85)”.

Turning to `COC(=O)c1nc(C(F)(F)F)ncc1-c1ccccc1Cl` [example 316], the “herbicidal activity against APESV” value with APESV (application rate 1000 g/ha) is “good (A good herbicidal activity is given at values of at least 70)”. Further, the “herbicidal activity against ECHCG” value in the assay on ECHCG [1] (application rate 1000 g/ha) is on record as “good (A good herbicidal activity is given at values of at least 70)”. In the assay with AVEFA (application rate 1000 g/ha), the “herbicidal activity against AVEFA” value is on record as “good (A good herbicidal activity is given at values of at least 70)”.

Regarding `COC(=O)c1nc(C2CC2)ncc1-c1ccccc1SC(F)(F)F` [example 321], the “herbicidal activity against AVEFA” value with AVEFA (application rate 1000 g/ha) is reported as “herbicidal activity”.

These data come from patent US10420341B2, “Herbicidal phenylpyrimidines” (BASF SE, priority 2015, dated 2019).
